Data published in US6518284B2, “4-substituted piperidines” (Faes, Fabrica Espanola de Productos Quimicos Y …, priority 1999, dated 2003).
pKi: −log10 of the molar value.

These molecules were tested against T1, Dopamine uptake sites (transporters) (Rattus norvegicus, UniProt P23977) (assay: Affinity for dopamine uptake sites (transporters), rat brain). Conditions: bounds given in μM, read-out: K1 values, Dopamine uptake sites (transporters).
T1 construct: Uptake sites (transporters); Rat brain; from tissue; host or cells: rat brain
Assay type: binding

T1 sequence (P23977 whole entry): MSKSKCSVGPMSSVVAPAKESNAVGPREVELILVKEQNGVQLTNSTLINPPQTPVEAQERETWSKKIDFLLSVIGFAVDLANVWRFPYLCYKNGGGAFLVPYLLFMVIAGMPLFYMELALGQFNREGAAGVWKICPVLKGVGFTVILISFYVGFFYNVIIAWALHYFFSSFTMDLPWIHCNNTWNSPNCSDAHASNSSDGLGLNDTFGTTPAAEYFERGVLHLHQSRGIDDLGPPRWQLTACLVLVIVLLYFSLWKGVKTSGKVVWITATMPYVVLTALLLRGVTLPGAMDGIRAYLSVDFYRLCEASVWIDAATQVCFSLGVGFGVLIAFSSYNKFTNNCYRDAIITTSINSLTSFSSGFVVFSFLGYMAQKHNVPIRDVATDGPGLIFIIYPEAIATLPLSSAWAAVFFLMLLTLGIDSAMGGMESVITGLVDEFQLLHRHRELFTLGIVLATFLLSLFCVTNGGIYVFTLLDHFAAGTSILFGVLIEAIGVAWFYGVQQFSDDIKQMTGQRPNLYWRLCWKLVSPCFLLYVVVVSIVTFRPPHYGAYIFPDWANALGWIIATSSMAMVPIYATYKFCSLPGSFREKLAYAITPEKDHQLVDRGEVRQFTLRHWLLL

Structure (SMILES)	Ki [µM]
Fc1ccccc1O[C@H](c1ccccc1)C1CCNCC1 [Compound F-98607-PD]	> 1
Fc1cccc([C@H](Oc2ccccc2F)C2CCNCC2)c1 [Compound F-98917-PD]	> 1
O=[N+]([O-])c1ccc(O[C@H](c2ccccc2)C2CCNCC2)cc1 [Compound F-98603-PD]	> 10
Fc1cccc(O[C@@H](c2ccccc2)C2CCNCC2)c1 [Compound F-98212-TA]	> 1
Fc1cc(F)cc(O[C@@H](c2ccccc2)C2CCNCC2)c1 [Compound F-98822-TA]	> 1
O=[N+]([O-])c1ccc(OC(c2ccccc2)C2CCNCC2)cc1 (stereo not drawn) [Compound F-98610-PD]	> 1
Fc1cccc(O[C@@H](c2cccc(F)c2)C2CCNCC2)c1 [Compound F-98829-PD]	> 1
FC(F)(F)c1ccc(OC(c2ccccc2)C2CCNCC2)cc1 (stereo not drawn) [Compound F-98404-TA]	> 1
Fc1cc(F)cc(O[C@H](c2ccccc2)C2CCNCC2)c1 [Compound F-98814-TA]	> 1
N#Cc1cccc(OC(c2ccccc2)C2CCNCC2)c1 (stereo not drawn) [Compound F-98716-TA]	> 1
FC(F)(F)c1ccc(O[C@H](c2ccccc2)C2CCNCC2)cc1 [Compound F-98408-TA]	> 1
Clc1cccc(O[C@@H](c2ccccc2)C2CCNCC2)c1 [Compound F-98616-TA]	> 1
Clc1cccc(O[C@H](c2ccccc2)C2CCNCC2)c1 [Compound F-98620-TA]	> 1

Same assay, conditions: read-out: K1 values, Dopamine uptake sites (transporters)

Structure (SMILES)	pKi
Fc1ccccc1O[C@@H](c1ccccc1)C1CCNCC1 [Compound F-98718-PD]	6.28
Fc1ccc(O[C@@H](c2ccccc2)C2CCNCC2)cc1 [Compound F-97814-TA]	6.09
Fc1ccc(O[C@H](c2ccccc2)C2CCNCC2)cc1 [Compound F-97815-TA]	6.60
N#Cc1cccc(O[C@H](c2ccccc2)C2CCNCC2)c1 [Compound F-98715-TA]	6.96
Fc1cccc(O[C@H](c2cccc(F)c2)C2CCNCC2)c1 [Compound F-98828-PD]	6.95
Fc1cccc(O[C@H](c2ccccc2)C2CCNCC2)c1 [Compound F-98214-TA]	6.34
Fc1cccc([C@@H](Oc2ccccc2F)C2CCNCC2)c1 [Compound F-98925-PD]	6.42

What follows are molecules tested against noradrenaline (NA) reuptake receptors / Noradrenaline uptake sites (transporters) (Rattus norvegicus, UniProt Q63380) (assay: Affinity for noradrenaline reuptake sites, [3H]-nisoxetine radioligand, rat cerebral cortex). Conditions: Rat brain; bounds given in μM; read-out: K1 values, Noradrenaline uptake sites (transporters).
Assay type: binding
Description: (§1) The pharmacological activity of the compounds of general formula (I) was determnined-using well-established in vitro and in vivo pharmacological processes.

Sequence of noradrenaline (NA) reuptake receptors / Noradrenaline uptake sites (transporters) (Q63380 1-617): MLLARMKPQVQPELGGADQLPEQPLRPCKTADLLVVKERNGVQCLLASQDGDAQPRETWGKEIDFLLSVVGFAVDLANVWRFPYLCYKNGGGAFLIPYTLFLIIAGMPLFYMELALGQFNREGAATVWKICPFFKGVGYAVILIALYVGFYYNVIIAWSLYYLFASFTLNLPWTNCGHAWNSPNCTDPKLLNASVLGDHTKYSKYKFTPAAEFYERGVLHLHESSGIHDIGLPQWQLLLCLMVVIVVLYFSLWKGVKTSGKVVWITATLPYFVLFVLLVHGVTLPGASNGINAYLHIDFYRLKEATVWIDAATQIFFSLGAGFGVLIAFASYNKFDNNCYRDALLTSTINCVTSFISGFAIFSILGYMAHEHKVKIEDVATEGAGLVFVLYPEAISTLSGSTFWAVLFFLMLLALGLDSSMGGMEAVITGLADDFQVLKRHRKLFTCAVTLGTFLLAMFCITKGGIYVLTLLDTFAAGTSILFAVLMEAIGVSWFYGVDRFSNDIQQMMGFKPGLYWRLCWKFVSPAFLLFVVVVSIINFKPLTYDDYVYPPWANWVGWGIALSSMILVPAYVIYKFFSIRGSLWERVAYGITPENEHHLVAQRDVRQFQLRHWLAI

Structure (SMILES)	Ki [µM]
O=[N+]([O-])c1ccc(O[C@H](c2ccccc2)C2CCNCC2)cc1 [Compound F-98603-PD]	> 1
O=[N+]([O-])c1ccc(OC(c2ccccc2)C2CCNCC2)cc1 (stereo not drawn) [Compound F-98610-PD]	> 1
FC(F)(F)c1ccc(OC(c2ccccc2)C2CCNCC2)cc1 (stereo not drawn) [Compound F-98404-TA]	> 10
FC(F)(F)c1ccc(O[C@H](c2ccccc2)C2CCNCC2)cc1 [Compound F-98408-TA]	> 10

Same assay, conditions: Rat brain; read-out: K1 values, Noradrenaline uptake sites (transporters)

Structure (SMILES)	pKi
Fc1ccccc1O[C@H](c1ccccc1)C1CCNCC1 [Compound F-98607-PD]	7.65
Fc1cccc([C@H](Oc2ccccc2F)C2CCNCC2)c1 [Compound F-98917-PD]	7.72
Fc1cccc(O[C@@H](c2ccccc2)C2CCNCC2)c1 [Compound F-98212-TA]	6.97
Fc1ccccc1O[C@@H](c1ccccc1)C1CCNCC1 [Compound F-98718-PD]	7.38
Fc1cc(F)cc(O[C@@H](c2ccccc2)C2CCNCC2)c1 [Compound F-98822-TA]	6.41
Fc1ccc(O[C@H](c2ccccc2)C2CCNCC2)cc1 [Compound F-97815-TA]	5.84
N#Cc1cccc(O[C@H](c2ccccc2)C2CCNCC2)c1 [Compound F-98715-TA]	7.06
Fc1cccc(O[C@@H](c2cccc(F)c2)C2CCNCC2)c1 [Compound F-98829-PD]	7.76
Fc1cc(F)cc(O[C@H](c2ccccc2)C2CCNCC2)c1 [Compound F-98814-TA]	7.60
N#Cc1cccc(OC(c2ccccc2)C2CCNCC2)c1 (stereo not drawn) [Compound F-98716-TA]	6.75
Fc1cccc(O[C@H](c2cccc(F)c2)C2CCNCC2)c1 [Compound F-98828-PD]	6.89
Fc1cccc(O[C@H](c2ccccc2)C2CCNCC2)c1 [Compound F-98214-TA]	7.87
Fc1cccc([C@@H](Oc2ccccc2F)C2CCNCC2)c1 [Compound F-98925-PD]	7.32
Clc1cccc(O[C@@H](c2ccccc2)C2CCNCC2)c1 [Compound F-98616-TA]	7.25

Each molecule was assayed against T2, serotonin reuptake receptors (5HT) / Serotonin uptake sites (transporters) (Rattus norvegicus, UniProt P31652) (assay: Affinity for serotonin reuptake sites, [3H]-paroxetine radioligand, rat cerebral cortex). Conditions: Rat brain; read-out: K1 values, Serotonin uptake sites (transporters).
T2 construct: from tissue; host or cells: rat cerebral cortex
Assay type: binding
Description: as §1

T2 sequence (P31652 whole entry): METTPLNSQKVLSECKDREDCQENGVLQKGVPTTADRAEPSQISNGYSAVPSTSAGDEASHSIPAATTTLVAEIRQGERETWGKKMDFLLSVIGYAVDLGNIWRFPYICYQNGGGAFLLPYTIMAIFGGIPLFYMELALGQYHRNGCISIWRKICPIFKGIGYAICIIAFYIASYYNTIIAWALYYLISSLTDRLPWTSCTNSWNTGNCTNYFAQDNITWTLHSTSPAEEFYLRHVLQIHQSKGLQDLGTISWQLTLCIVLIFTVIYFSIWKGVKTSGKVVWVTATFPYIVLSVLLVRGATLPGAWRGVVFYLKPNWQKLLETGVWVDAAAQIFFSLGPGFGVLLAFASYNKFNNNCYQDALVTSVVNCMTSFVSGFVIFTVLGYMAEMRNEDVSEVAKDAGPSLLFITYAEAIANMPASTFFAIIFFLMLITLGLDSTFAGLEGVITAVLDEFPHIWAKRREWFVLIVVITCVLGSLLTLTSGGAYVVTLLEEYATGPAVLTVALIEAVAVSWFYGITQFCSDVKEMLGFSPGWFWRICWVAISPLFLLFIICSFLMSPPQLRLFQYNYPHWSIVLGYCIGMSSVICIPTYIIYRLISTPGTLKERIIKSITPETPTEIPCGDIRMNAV

Structure (SMILES)	pKi
Fc1ccccc1O[C@H](c1ccccc1)C1CCNCC1 [Compound F-98607-PD]	8.38
Fc1cccc([C@H](Oc2ccccc2F)C2CCNCC2)c1 [Compound F-98917-PD]	8.37
O=[N+]([O-])c1ccc(O[C@H](c2ccccc2)C2CCNCC2)cc1 [Compound F-98603-PD]	9.20
Fc1ccccc1O[C@@H](c1ccccc1)C1CCNCC1 [Compound F-98718-PD]	7.54
Fc1ccc(O[C@@H](c2ccccc2)C2CCNCC2)cc1 [Compound F-97814-TA]	9.35
Fc1cc(F)cc(O[C@@H](c2ccccc2)C2CCNCC2)c1 [Compound F-98822-TA]	8.15
O=[N+]([O-])c1ccc(OC(c2ccccc2)C2CCNCC2)cc1 (stereo not drawn) [Compound F-98610-PD]	7.82
Fc1ccc(O[C@H](c2ccccc2)C2CCNCC2)cc1 [Compound F-97815-TA]	7.34
N#Cc1cccc(O[C@H](c2ccccc2)C2CCNCC2)c1 [Compound F-98715-TA]	8.77
Fc1cccc(O[C@@H](c2cccc(F)c2)C2CCNCC2)c1 [Compound F-98829-PD]	8.55
FC(F)(F)c1ccc(OC(c2ccccc2)C2CCNCC2)cc1 (stereo not drawn) [Compound F-98404-TA]	7.83
Fc1cc(F)cc(O[C@H](c2ccccc2)C2CCNCC2)c1 [Compound F-98814-TA]	8.85
N#Cc1cccc(OC(c2ccccc2)C2CCNCC2)c1 (stereo not drawn) [Compound F-98716-TA]	8.84
Fc1cccc(O[C@H](c2cccc(F)c2)C2CCNCC2)c1 [Compound F-98828-PD]	8.00
FC(F)(F)c1ccc(O[C@H](c2ccccc2)C2CCNCC2)cc1 [Compound F-98408-TA]	7.46
Fc1cccc([C@@H](Oc2ccccc2F)C2CCNCC2)c1 [Compound F-98925-PD]	7.56
